Literature values, collected in PMC4594385 (Journal of Medical Physics / Association of Medical …, 2015).

Conditions: compared with femur uptake at 4 h; ref Banerjee et al. [1]

Structure (SMILES): O=P([O-])(O)CN(CCN(CP(=O)([O-])O)CP(=O)(O)O)CP(=O)([O-])O.[153Sm+3] [^153Sm-EDTMP]
- Bone uptake: 3.72 %ID/g
